According to patent publication US20260285850A1, “SUBSTITUTED OXAZOLIDINONES AND IMIDAZOLINONES AS HERBICIDES” (FMC CORPORATION, priority 2023, published 2026):

How the values were obtained:
Format in all cases: in vivo
[1] = tested on: ducksalad (Heteranthera limosa); test: Test B flooded paddy test, visual plant response rating 0-100; details: 250 g ai/ha, Flood, applied to paddy water, evaluated after 13 days
How it was run: (§1)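 2-leaf plants; flood 3 cm over soil; compound dosed into paddy water; depth kept constant; greenhouse 13 d; visual scoring vs controls. Dash = no result.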

[2] = tested on: sedge, umbrella (small-flower umbrella sedge, Cyperus difformis); test: as above; details: 250 g ai/ha, Flood, applied to paddy water, evaluated after 13 days
How it was run: as §1

rice (Oryza sativa) = test: as above; details: 250 g ai/ha, Flood, applied to paddy water, evaluated after 13 days
How it was run: as §1

[3] = tested on: barnyardgrass (Echinochloa crusgalli); test: as above; details: 250 g ai/ha, Flood, applied to paddy water, evaluated after 13 days
How it was run: as §1

[4] = tested on: ryegrass, Italian (italian ryegrass, Lolium multiflorum); test: Test A postemergence application, visual injury rating 0-100
How it was run: (§2)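 Plants were grown in a loam soil-sand blend and treated with test chemical in a non-phytotoxic solvent mixture containing surfactant, either sprayed on soil preemergence or applied postemergence to 2-10 cm plants. After 10 days in a greenhouse, injury was scored visually against untreated controls, 0 meaning no effect and 100 complete control.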

soybean (Glycine max) [5] = test: as above
How it was run: as §2

[6] = tested on: wheat (Triticum aestivum); test: as above
How it was run: as §2

[7] = tested on: ragweed (common ragweed, Ambrosia artemisiifolia); test: as above
How it was run: as §2

corn (Zea mays) [8] = test: as above
How it was run: as §2

[9] = tested on: blackgrass (Alopecurus myosuroides); test: as above
How it was run: as §2

[10] = tested on: green foxtail (Setaria viridis); test: as above
How it was run: as §2

[11] = tested on: palmer (palmer amaranth, palmer pigweed, Amaranthus palmeri); test: as above
How it was run: as §2

[12] = tested on: oat, wild (wild oat, Avena fatua); test: as above
How it was run: as §2

kochia (Bassia scoparia) [13] = test: as above
How it was run: as §2

[14] = tested on: galium (catchweed bedstraw, Galium aparine); test: as above; details: Postemergence, 16 g ai/ha, greenhouse 10 days; 0 no effect, 100 complete control
How it was run: as §2

[15] = tested on: horseweed (Erigeron canadensis); test: as above
How it was run: as §2

[16] = tested on: barnyardgrass (Echinochloa crus-galli); test: as above
How it was run: as §2

[17] = tested on: ryegrass, Italian (italian ryegrass, Lolium multiflorum); test: Test A preemergence soil spray, visual injury rating 0-100; details: 10 days
How it was run: as §2

soybean (Glycine max) [18] = test: as above; details: 10 days
How it was run: as §2

[19] = tested on: wheat (Triticum aestivum); test: as above; details: 10 days
How it was run: as §2

[20] = tested on: ragweed (common ragweed, Ambrosia artemisiifolia); test: as above; details: 10 days
How it was run: as §2

corn (Zea mays) [21] = test: as above; details: 10 days
How it was run: as §2

[22] = tested on: blackgrass (Alopecurus myosuroides); test: as above; details: 10 days
How it was run: as §2

[23] = tested on: green foxtail (Setaria viridis); test: as above; details: 10 days
How it was run: as §2

[24] = tested on: palmer (palmer amaranth, palmer pigweed, Amaranthus palmeri); test: as above; details: 10 days
How it was run: as §2

[25] = tested on: oat, wild (wild oat, Avena fatua); test: as above; details: 10 days
How it was run: as §2

kochia (Bassia scoparia) [26] = test: as above; details: 10 days
How it was run: as §2

[27] = tested on: barnyardgrass (Echinochloa crus-galli); test: as above; details: 10 days
How it was run: as §2

[28] = 62 g ai/ha, postemergence, 10 days, 0 = no effect, 100 = complete control
[29] = Postemergence, 16 g ai/ha, greenhouse 10 days, 0 no effect, 100 complete control
[30] = 62 g ai/ha, 0 = no effect, 100 = complete control

Compound: CC1(C(=O)NC2CC=C(C(=O)OCC(F)F)C2)CN(c2cc(F)cc(F)c2)C(=O)O1 (stereo not drawn) [Compound 151]
- Plant response rating, Ducksalad (0 to 100 scale, 0 is no effect and 100 is complete control) [1]: 0
- Plant response rating, Sedge, Umbrella (0 to 100 scale, 0 is no effect and 100 is complete control) [2]: 0
- Plant response rating, Rice (0 to 100 scale, 0 is no effect and 100 is complete control) (rice (Oryza sativa)): 0
- Plant response rating, Barnyardgrass (0 to 100 scale, 0 is no effect and 100 is complete control) [3]: 0
- Ryegrass, Italian plant response rating (0-100) [4, 28]: 0
- Ryegrass, Italian plant response rating (0 to 100 scale) [4, 29]: 0
- Soybean plant response rating (0-100) (soybean (Glycine max) [5]; [28]): 0
- Soybean plant response rating (0 to 100 scale) (soybean (Glycine max) [5]; [29]): 0
- Wheat plant response rating (0-100) [6, 28]: 0
- Wheat plant response rating (0 to 100 scale) [6, 29]: 0
- Ragweed plant response rating (0-100) [7, 28]: 0
- Ragweed plant response rating (0 to 100 scale) [7, 29]: 0
- Corn plant response rating (0-100) (corn (Zea mays) [8]; [28]): 0
- Corn plant response rating (0 to 100 scale) (corn (Zea mays) [8]; [29]): 0
- Blackgrass plant response rating (0-100) [9, 28]: 0
- Blackgrass plant response rating (0 to 100 scale) [9, 29]: 0
- Foxtail, Green plant response rating (0-100) [10, 28]: 0
- Foxtail, Green plant response rating (0 to 100 scale) [10, 29]: 0
- Pigweed, Palmer plant response rating (0-100) [11, 28]: 0
- Pigweed, Palmer plant response rating (0 to 100 scale) [11, 29]: 0
- Oat, Wild plant response rating (0-100) [12, 28]: 0
- Oat, Wild plant response rating (0 to 100 scale) [12, 29]: 0
- Kochia plant response rating (0-100) (kochia (Bassia scoparia) [13]; [28]): 0
- Kochia plant response rating (0 to 100 scale) (kochia (Bassia scoparia) [13]; [29]): 0
- Galium plant response rating (0 to 100 scale) [14]: 0
- Horseweed plant response rating (0-100) [15, 28]: 0
- Horseweed plant response rating (0 to 100 scale) [15, 29]: 0
- Barnyardgrass plant response rating (0-100) [16, 28]: 20
- Barnyardgrass plant response rating (0 to 100 scale) [16, 29]: 0
- Ryegrass, Italian plant response rating ([17]; 16 g ai/ha, 0 to 100 scale): 0
- Ryegrass, Italian plant response rating (0-100) [17, 30]: 0
- Soybean plant response rating (soybean (Glycine max) [18]; 16 g ai/ha, 0 to 100 scale): 0
- Soybean plant response rating (0-100) (soybean (Glycine max) [18]; [30]): 0
- Wheat plant response rating ([19]; 16 g ai/ha, 0 to 100 scale): 0
- Wheat plant response rating (0-100) [19, 30]: 0
- Ragweed plant response rating ([20]; 16 g ai/ha, 0 to 100 scale): 0
- Ragweed plant response rating (0-100) [20, 30]: 0
- Corn plant response rating (corn (Zea mays) [21]; 16 g ai/ha, 0 to 100 scale): 0
- Corn plant response rating (0-100) (corn (Zea mays) [21]; [30]): 0
- Blackgrass plant response rating ([22]; 16 g ai/ha, 0 to 100 scale): 0
- Blackgrass plant response rating (0-100) [22, 30]: 0
- Foxtail, Green plant response rating ([23]; 16 g ai/ha, 0 to 100 scale): 0
- Foxtail, Green plant response rating (0-100) [23, 30]: 0
- Pigweed, Palmer plant response rating ([24]; 16 g ai/ha, 0 to 100 scale): 0
- Pigweed, Palmer plant response rating (0-100) [24, 30]: 0
- Oat, Wild plant response rating ([25]; 16 g ai/ha, 0 to 100 scale): 0
- Oat, Wild plant response rating (0-100) [25, 30]: 0
- Kochia plant response rating (kochia (Bassia scoparia) [26]; 16 g ai/ha, 0 to 100 scale): 0
- Kochia plant response rating (0-100) (kochia (Bassia scoparia) [26]; [30]): 0
- Barnyardgrass plant response rating ([27]; 16 g ai/ha, 0 to 100 scale): 0
- Barnyardgrass plant response rating (0-100) [27, 30]: 0
